# Laboratory results taken from paper PMC12361428 (Nature Communications, 2025).
# Where “and” joins values, the source holds several entries; their conditions need not be identical. Identical values can stand only once.
# Legend:
# Nluc-A3AR Y15A^1.35 = target: T1, Nluc-A3AR Y15A^1.35 (Homo sapiens, UniProt P0DMS8, Y15A); assay: biochemical; format: binding; conditions: Y15A; log[adenosine] -8; read-out: normalised XAC-630 binding
# T1 construct: expressed in transfected cells; host or cells: HEK293a
# T1 sequence (P0DMS8 whole entry Y15A): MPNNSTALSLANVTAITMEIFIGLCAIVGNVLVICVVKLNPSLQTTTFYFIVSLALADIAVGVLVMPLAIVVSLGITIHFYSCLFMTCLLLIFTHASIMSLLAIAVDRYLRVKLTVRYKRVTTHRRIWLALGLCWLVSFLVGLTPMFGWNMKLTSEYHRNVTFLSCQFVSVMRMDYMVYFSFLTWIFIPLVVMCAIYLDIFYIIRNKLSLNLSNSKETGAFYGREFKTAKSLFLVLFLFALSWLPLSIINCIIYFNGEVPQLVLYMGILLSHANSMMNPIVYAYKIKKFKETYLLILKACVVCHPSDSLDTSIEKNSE
# Description: (§1) All experiments were performed in duplicate.
# (§2) Data were expressed as the mean ± standard error. All binding and Trupath data were analysed using the nonlinear regression curve-fitting programme with Prism 10 (GraphPad, San Diego, CA, USA). For nanoBRET saturation binding experiments, specific binding was calculated by subtracting non-specific binding (defined as binding in the presence of 10 µM MRS1220) from total binding. Specific binding data in each experiment were then normalised to the maximal binding (Bmax) of WT and fit to a one-site specific binding equation: Y =Bmax*[X]/(Kd + [X]). For nanoBRET competition binding experiments, data were normalised to total and non-specific binding responses and fit to a one-site—Fit Ki equation. Trupath's experimental data was baseline-corrected to the initial four baseline reads and then adjusted to the buffer control response. The area under the curve (AUC) for each response was calculated and plotted with a non-linear regression curve (log[agonist] vs response, three-parameter model), using the equation: Y = Bottom + (Top–Bottom)/(1 + 10^((LogEC50-X))). Here, X represents the log dose of the agonist, Y is the BRET2 AUC response, Top and Bottom are the curve plateaus, and EC50 is the agonist concentration yielding a response halfway between the Bottom and Top values. […] The efficacy of the agonists (τA) was separately calculated using the Black–Leff operational model of agonism[79] using KA values from Table 2 and then corrected for receptor expression relative to WT using Bmax values from Table 1[80]. Significant differences vs WT were determined by one-way ANOVA with a Dunnett’s multiple comparison test.
# Nluc-A3AR WT = target: T2, Nluc-A3AR WT (Homo sapiens, UniProt P0DMS8); assay: biochemical; format: binding; conditions: WT, read-out: normalised XAC-630 binding
# T2 construct: expressed in transfected cells; host or cells: HEK293a
# Description: as §1
# (§3) Data were expressed as the mean ± standard error. All binding and Trupath data were analysed using the nonlinear regression curve-fitting programme with Prism 10 (GraphPad, San Diego, CA, USA). For nanoBRET saturation binding experiments, specific binding was calculated by subtracting non-specific binding (defined as binding in the presence of 10 µM MRS1220) from total binding. Specific binding data in each experiment were then normalised to the maximal binding (Bmax) of WT and fit to a one-site specific binding equation: Y =Bmax*[X]/(Kd + [X]). For nanoBRET competition binding experiments, data were normalised to total and non-specific binding responses and fit to a one-site—Fit Ki equation. […] Significant differences vs WT were determined by one-way ANOVA with a Dunnett’s multiple comparison test.
# Nluc-A3AR M174A^5.35 = target: T3, Nluc-A3AR M174A^5.35 (Homo sapiens, UniProt P0DMS8, M174A); assay: biochemical; format: binding; conditions: M174A, read-out: normalised XAC-630 binding
# T3 construct: expressed in transfected cells; host or cells: HEK293a
# T3 sequence (P0DMS8 whole entry M174A): as the sequence (P0DMS8 whole entry Y15A) above, with A15Y, M174A counted along it
# Description: as §1, §2
# Nluc-A3AR S73A^2.65 = target: T4, Nluc-A3AR S73A^2.65 (Homo sapiens, UniProt P0DMS8, S73A); assay: biochemical; format: binding; conditions: S73A, read-out: normalised XAC-630 binding
# T4 construct: expressed in transfected cells; host or cells: HEK293a
# T4 sequence (P0DMS8 whole entry S73A): as the sequence (P0DMS8 whole entry Y15A) above, with A15Y, S73A counted along it
# Description: as §1, §3
# Nluc-A3AR V169E^45.53 = target: T5, Nluc-A3AR V169E^45.53 (Homo sapiens, UniProt P0DMS8, V169E); assay: biochemical; format: binding; conditions: V169E, read-out: normalised XAC-630 binding
# T5 construct: expressed in transfected cells; host or cells: HEK293a
# T5 sequence (P0DMS8 whole entry V169E): as the sequence (P0DMS8 whole entry Y15A) above, with A15Y, V169E counted along it
# Description: as §1
# (§4) Data were expressed as the mean ± standard error. All binding and Trupath data were analysed using the nonlinear regression curve-fitting programme with Prism 10 (GraphPad, San Diego, CA, USA). For nanoBRET saturation binding experiments, specific binding was calculated by subtracting non-specific binding (defined as binding in the presence of 10 µM MRS1220) from total binding. Specific binding data in each experiment were then normalised to the maximal binding (Bmax) of WT and fit to a one-site specific binding equation: Y =Bmax*[X]/(Kd + [X]). For nanoBRET competition binding experiments, data were normalised to total and non-specific binding responses and fit to a one-site—Fit Ki equation. Trupath's experimental data was baseline-corrected to the initial four baseline reads and then adjusted to the buffer control response. The area under the curve (AUC) for each response was calculated and plotted with a non-linear regression curve (log[agonist] vs response, three-parameter model), using the equation: Y = Bottom + (Top–Bottom)/(1 + 10^((LogEC50-X))). Here, X represents the log dose of the agonist, Y is the BRET2 AUC response, Top and Bottom are the curve plateaus, and EC50 is the agonist concentration yielding a response halfway between the Bottom and Top values. […] Significant differences vs WT were determined by one-way ANOVA with a Dunnett’s multiple comparison test. Significance levels are indicated as follows: P ≤ 0.0001****, P = 0.0001–0.001***, P = 0.001–0.01**, and P = 0.01–0.05*.
# A3AR S73A^2.65 = target: T6, A3AR S73A^2.65 (Homo sapiens, UniProt P0DMS8, S73A); assay: Gαi1 activation, TruPath BRET assay in HEK293a cells; format: cell-based
# T6 construct: expressed in transfected cells; host or cells: HEK293a
# T6 sequence (P0DMS8 whole entry S73A): as the sequence (P0DMS8 whole entry Y15A) above, with A15Y, S73A counted along it
# Description: (§5) Two days post-transfection, plates were washed twice with BRET buffer (HBSS with 10 mM HEPES, pH 7.4). After a 30-min incubation at 37 °C, plates were placed in a PHERAstar plate reader at 37 °C, and four baseline readings were taken using BRET2 filters at 410 ± 80 nm and 515 ± 30 nm. […] BRET2 ratios were calculated as the ratio of GFP2 emission (515 ± 30 nm) to RLuc8 emission (410 ± 80 nm).
# (§6) Data were expressed as the mean ± standard error. All binding and Trupath data were analysed using the nonlinear regression curve-fitting programme with Prism 10 (GraphPad, San Diego, CA, USA). […] Trupath's experimental data was baseline-corrected to the initial four baseline reads and then adjusted to the buffer control response. The area under the curve (AUC) for each response was calculated and plotted with a non-linear regression curve (log[agonist] vs response, three-parameter model), using the equation: Y = Bottom + (Top–Bottom)/(1 + 10^((LogEC50-X))). Here, X represents the log dose of the agonist, Y is the BRET2 AUC response, Top and Bottom are the curve plateaus, and EC50 is the agonist concentration yielding a response halfway between the Bottom and Top values. […] Significant differences vs WT were determined by one-way ANOVA with a Dunnett’s multiple comparison test.
# A3AR WT = target: T7, A3AR WT (Homo sapiens, UniProt P0DMS8); assay: as above; format: cell-based
# T7 construct: expressed in transfected cells; host or cells: HEK293a
# T7 sequence (P0DMS8 1-318): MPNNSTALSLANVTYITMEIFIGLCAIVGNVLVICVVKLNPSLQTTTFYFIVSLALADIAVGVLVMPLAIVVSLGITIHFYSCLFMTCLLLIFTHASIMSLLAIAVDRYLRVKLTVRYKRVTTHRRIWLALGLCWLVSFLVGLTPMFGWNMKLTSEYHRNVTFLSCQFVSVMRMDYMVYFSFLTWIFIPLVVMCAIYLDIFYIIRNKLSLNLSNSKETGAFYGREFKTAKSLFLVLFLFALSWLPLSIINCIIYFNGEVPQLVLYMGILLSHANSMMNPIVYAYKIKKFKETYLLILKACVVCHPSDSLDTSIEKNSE
# Description: PEI was added at a 6:1 PEI-to-DNA ratio. Two days post-transfection, plates were washed twice with BRET buffer (HBSS with 10 mM HEPES, pH 7.4). After a 30-min incubation at 37 °C, plates were placed in a PHERAstar plate reader at 37 °C, and four baseline readings were taken using BRET2 filters at 410 ± 80 nm and 515 ± 30 nm. […] BRET2 ratios were calculated as the ratio of GFP2 emission (515 ± 30 nm) to RLuc8 emission (410 ± 80 nm).
# Data were expressed as the mean ± standard error. All binding and Trupath data were analysed using the nonlinear regression curve-fitting programme with Prism 10 (GraphPad, San Diego, CA, USA). For nanoBRET saturation binding experiments, specific binding was calculated by subtracting non-specific binding (defined as binding in the presence of 10 µM MRS1220) from total binding. Specific binding data in each experiment were then normalised to the maximal binding (Bmax) of WT and fit to a one-site specific binding equation: Y =Bmax*[X]/(Kd + [X]). For nanoBRET competition binding experiments, data were normalised to total and non-specific binding responses and fit to a one-site—Fit Ki equation. Trupath's experimental data was baseline-corrected to the initial four baseline reads and then adjusted to the buffer control response. The area under the curve (AUC) for each response was calculated and plotted with a non-linear regression curve (log[agonist] vs response, three-parameter model), using the equation: Y = Bottom + (Top–Bottom)/(1 + 10^((LogEC50-X))). Here, X represents the log dose of the agonist, Y is the BRET2 AUC response, Top and Bottom are the curve plateaus, and EC50 is the agonist concentration yielding a response halfway between the Bottom and Top values. To determine efficacy values. The efficacy of the agonists (τA) was separately calculated using the Black–Leff operational model of agonism[79] using KA values from Table 2 and then corrected for receptor expression relative to WT using Bmax values from Table 1[80]. Significant differences vs WT were determined by one-way ANOVA with a Dunnett’s multiple comparison test. Significance levels are indicated as follows: P ≤ 0.0001****, P = 0.0001–0.001***, P = 0.001–0.01**, and P = 0.01–0.05*.
# Nluc-A3AR H95F^3.37 = target: T8, Nluc-A3AR H95F^3.37 (Homo sapiens, UniProt P0DMS8, H95F); assay: biochemical; format: binding; conditions: H95F; log[adenosine] -8; read-out: normalised XAC-630 binding
# T8 construct: expressed in transfected cells; host or cells: HEK293a
# T8 sequence (P0DMS8 whole entry H95F): as the sequence (P0DMS8 whole entry Y15A) above, with A15Y, H95F counted along it
# Description: as §1, §4
# Nluc-A3AR H95A^3.37 = target: T9, Nluc-A3AR H95A^3.37 (Homo sapiens, UniProt P0DMS8, H95A); assay: biochemical; format: binding; conditions: H95A, read-out: normalised XAC-630 binding
# T9 construct: expressed in transfected cells; host or cells: HEK293a
# T9 sequence (P0DMS8 whole entry H95A): as the sequence (P0DMS8 whole entry Y15A) above, with A15Y, H95A counted along it
# Description: as §1, §4
# A3AR M174A^5.35 = target: T10, A3AR M174A^5.35 (Homo sapiens, UniProt P0DMS8, M174A); assay: Gαi1 activation, TruPath BRET assay in HEK293a cells; format: cell-based
# T10 construct: expressed in transfected cells; host or cells: HEK293a
# T10 sequence (P0DMS8 whole entry M174A): as the sequence (P0DMS8 whole entry Y15A) above, with A15Y, M174A counted along it
# Description: as §5, §6
# Nluc-A3AR T94A^3.36 = target: T11, Nluc-A3AR T94A^3.36 (Homo sapiens, UniProt P0DMS8, T94A); assay: biochemical; format: binding; conditions: T94A, read-out: normalised XAC-630 binding
# T11 construct: expressed in transfected cells; host or cells: HEK293a
# T11 sequence (P0DMS8 whole entry T94A): as the sequence (P0DMS8 whole entry Y15A) above, with A15Y, T94A counted along it
# Description: as §1, §2
# Nluc-A3AR Y265A^7.36 = target: T12, Nluc-A3AR Y265A^7.36 (Homo sapiens, UniProt P0DMS8, Y265A); assay: biochemical; format: binding; conditions: Y265A, read-out: normalised XAC-630 binding
# T12 construct: expressed in transfected cells; host or cells: HEK293a
# T12 sequence (P0DMS8 whole entry Y265A): as the sequence (P0DMS8 whole entry Y15A) above, with A15Y, Y265A counted along it
# Description: as §1, §2
# A3AR V169E^45.53 = target: T13, A3AR V169E^45.53 (Homo sapiens, UniProt P0DMS8, V169E); assay: Gαi1 activation, TruPath BRET assay in HEK293a cells; format: cell-based
# T13 construct: expressed in transfected cells; host or cells: HEK293a
# T13 sequence (P0DMS8 whole entry V169E): as the sequence (P0DMS8 whole entry Y15A) above, with A15Y, V169E counted along it
# Description: as §5, §6
# A3AR Y265A^7.36 = target: T14, A3AR Y265A^7.36 (Homo sapiens, UniProt P0DMS8, Y265A); assay: as above; format: cell-based
# T14 construct: expressed in transfected cells; host or cells: HEK293a
# T14 sequence (P0DMS8 whole entry Y265A): as the sequence (P0DMS8 whole entry Y15A) above, with A15Y, Y265A counted along it
# Description: PEI was added at a 6:1 PEI-to-DNA ratio.
# Data were expressed as the mean ± standard error. All binding and Trupath data were analysed using the nonlinear regression curve-fitting programme with Prism 10 (GraphPad, San Diego, CA, USA). For nanoBRET saturation binding experiments, specific binding was calculated by subtracting non-specific binding (defined as binding in the presence of 10 µM MRS1220) from total binding. Specific binding data in each experiment were then normalised to the maximal binding (Bmax) of WT and fit to a one-site specific binding equation: Y =Bmax*[X]/(Kd + [X]). For nanoBRET competition binding experiments, data were normalised to total and non-specific binding responses and fit to a one-site—Fit Ki equation. Trupath's experimental data was baseline-corrected to the initial four baseline reads and then adjusted to the buffer control response. The area under the curve (AUC) for each response was calculated and plotted with a non-linear regression curve (log[agonist] vs response, three-parameter model), using the equation: Y = Bottom + (Top–Bottom)/(1 + 10^((LogEC50-X))). […] Significant differences vs WT were determined by one-way ANOVA with a Dunnett’s multiple comparison test. […]
# Nluc-A3AR S271A^7.42 = target: T15, Nluc-A3AR S271A^7.42 (Homo sapiens, UniProt P0DMS8, S271A); assay: biochemical; format: binding; conditions: S271A, read-out: normalised XAC-630 binding
# T15 construct: expressed in transfected cells; host or cells: HEK293a
# T15 sequence (P0DMS8 whole entry S271A): as the sequence (P0DMS8 whole entry Y15A) above, with A15Y, S271A counted along it
# Description: as §1, §3
structure (smiles),measurement,setting,value
"Nc1ncnc2c1ncn2[C@@H]1O[C@H](CO)[C@@H](O)[C@H]1O [Adenosine, adenosine]",remaining activity at 0.01 µM,Nluc-A3AR Y15A^1.35,100%
same,remaining activity at 1 µM,Nluc-A3AR WT; log[adenosine] -6,103%
same,remaining activity at 0.1 µM,Nluc-A3AR WT; log[adenosine] -7,102%
same,remaining activity at 0.01 µM,Nluc-A3AR WT; log[adenosine] -8,100%
same,remaining activity at 1 µM,Nluc-A3AR M174A^5.35; log[adenosine] -6,100%
same,remaining activity at 0.01 µM,Nluc-A3AR M174A^5.35; log[adenosine] -8,101%
same,remaining activity at 10 µM,Nluc-A3AR S73A^2.65; log[adenosine] -5,82.6%
same,remaining activity at 1 µM,Nluc-A3AR S73A^2.65; log[adenosine] -6,100%
same,remaining activity at 0.1 µM,Nluc-A3AR S73A^2.65; log[adenosine] -7,100%
same,remaining activity at 0.01 µM,Nluc-A3AR S73A^2.65; log[adenosine] -8,100%
same,remaining activity at 100 µM,Nluc-A3AR V169E^45.53; log[adenosine] -4,37.3%
same,remaining activity at 10 µM,Nluc-A3AR V169E^45.53; log[adenosine] -5,78.7%
same,remaining activity at 1 µM,Nluc-A3AR V169E^45.53; log[adenosine] -6,98%
same,remaining activity at 0.1 µM,Nluc-A3AR V169E^45.53; log[adenosine] -7,95.5%
same,remaining activity at 0.01 µM,Nluc-A3AR V169E^45.53; log[adenosine] -8,100%
same,"log τ (efficacy, operational model, corrected for receptor expression)",A3AR S73A^2.65,1.4 ± 0.07
same,∆∆BRET Emax,A3AR S73A^2.65,1.49 ± 0.04
same,"log τ (efficacy, operational model, corrected for receptor expression)",A3AR WT,1.6 ± 0.2
same,∆∆BRET Emax,A3AR WT,0.89 ± 0.08
same,"Gαi1 activation response (Figure 7F), individual replicates",A3AR WT; log [agonist] -3,1.106 and 0.8834 and 0.9675
same,"Gαi1 activation response (Figure 7F), individual replicates",A3AR WT; log [agonist] -4,0.9524 and 0.7958 and 0.9068
same,"Gαi1 activation response (Figure 7F), individual replicates",A3AR WT; log [agonist] -5,0.9676 and 0.6508 and 0.8035
same,"Gαi1 activation response (Figure 7F), individual replicates",A3AR WT; log [agonist] -6,0.8382 and 0.5159 and 0.6976
same,"Gαi1 activation response (Figure 7F), individual replicates",A3AR WT; log [agonist] -7,0.312 and 0.3966 and 0.3849
same,"Gαi1 activation response (Figure 7F), individual replicates",A3AR WT; log [agonist] -8,0.0509 and 0.08839 and 0.07483
same,"Gαi1 activation response (Figure 7F), individual replicates",A3AR WT; log [agonist] -9,0.1 and 0.05123 and 0.04435
same,remaining activity at 0.01 µM,Nluc-A3AR H95F^3.37,100%
same,remaining activity at 1000 µM,Nluc-A3AR H95A^3.37; log[adenosine] -3,24%
same,remaining activity at 100 µM,Nluc-A3AR H95A^3.37; log[adenosine] -4,82.5%
same,remaining activity at 10 µM,Nluc-A3AR H95A^3.37; log[adenosine] -5,97.8%
same,remaining activity at 1 µM,Nluc-A3AR H95A^3.37; log[adenosine] -6,105%
same,remaining activity at 0.1 µM,Nluc-A3AR H95A^3.37; log[adenosine] -7,95.8%
same,remaining activity at 0.01 µM,Nluc-A3AR H95A^3.37; log[adenosine] -8,100%
same,"log τ (efficacy, operational model, corrected for receptor expression)",A3AR M174A^5.35,-0.1 ± 0.2
same,∆∆BRET Emax,A3AR M174A^5.35,1.35 ± 0.01
same,remaining activity at 1 µM,Nluc-A3AR T94A^3.36; log[adenosine] -6,100%
same,remaining activity at 0.1 µM,Nluc-A3AR T94A^3.36; log[adenosine] -7,103%
same,remaining activity at 0.01 µM,Nluc-A3AR T94A^3.36; log[adenosine] -8,100%
same,remaining activity at 100 µM,Nluc-A3AR Y265A^7.36; log[adenosine] -4,69.6%
same,remaining activity at 10 µM,Nluc-A3AR Y265A^7.36; log[adenosine] -5,94.1%
same,remaining activity at 1 µM,Nluc-A3AR Y265A^7.36; log[adenosine] -6,97.4%
same,remaining activity at 0.1 µM,Nluc-A3AR Y265A^7.36; log[adenosine] -7,99.2%
same,remaining activity at 0.01 µM,Nluc-A3AR Y265A^7.36; log[adenosine] -8,100%
same,"log τ (efficacy, operational model, corrected for receptor expression)",A3AR V169E^45.53,1.6 ± 0.1
same,∆∆BRET Emax,A3AR V169E^45.53,0.67 ± 0.02
same,"log τ (efficacy, operational model, corrected for receptor expression)",A3AR Y265A^7.36,1.4 ± 0.07
same,∆∆BRET Emax,A3AR Y265A^7.36,1.25 ± 0.04
same,remaining activity at 1000 µM,Nluc-A3AR S271A^7.42; log[adenosine] -3,90.4%
same,remaining activity at 100 µM,Nluc-A3AR S271A^7.42; log[adenosine] -4,102%
same,remaining activity at 10 µM,Nluc-A3AR S271A^7.42; log[adenosine] -5,100%
same,remaining activity at 1 µM,Nluc-A3AR S271A^7.42; log[adenosine] -6,104%
same,remaining activity at 0.1 µM,Nluc-A3AR S271A^7.42; log[adenosine] -7,105%
same,remaining activity at 0.01 µM,Nluc-A3AR S271A^7.42; log[adenosine] -8,100%
